Laboratory results as given in PubChem BioAssay AID2060503 (Molecular Pharmacology Branch, DTP, NCI, 2025).

test system: 817829-284-R-J1-PDC complex spheroids, viability; assay: Anticancer human tumor 817829-284-R-J1-PDC patient-derived colon adenocarcinoma cell line growth inhibition [GQUAD]; details: curve of first compound; second compound 10 µM
Procedure, shortened: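 Viability of tumor cells grown as complex spheroids with endothelial and stromal cells, exposed to drug combinations. Top concentration at or near clinical Cmax (else 10 microM), diluted in half-log increments.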
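Further: spheroids exposed to agents for 7 days before readout.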
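Wherever viability, T/C is given: percent viability relative to DMSO vehicle control taken as 100%.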

**Q.** With `CCCS(=O)(=O)Nc1ccc(F)c(C(=O)c2c[nH]c3ncc(-c4ccc(Cl)cc4)cc23)c1F` + CN(C)c1ccc(Nc2c3ccc(NC(=O)CCN4CCCC4)cc3nc3cc(NC(=O)CCN4CCCC4)ccc23)cc1 as the molecule, how does the IC50 read?
**A.** 1.47 µM

**Q.** For `COc1ncnc(C2CC2)c1-c1ncc2cnn(Cc3ccc(-c4nc(C(F)(F)F)cn4C(C)C)cc3)c2n1` + CN(C)c1ccc(Nc2c3ccc(NC(=O)CCN4CCCC4)cc3nc3cc(NC(=O)CCN4CCCC4)ccc23)cc1, which IC50 is on record?
**A.** 4.43 µM

**Q.** With `Cc1[nH]c2ccccc2c1CCNCc1ccc(/C=C/C(=O)NO)cc1` + CN(C)c1ccc(Nc2c3ccc(NC(=O)CCN4CCCC4)cc3nc3cc(NC(=O)CCN4CCCC4)ccc23)cc1 as the molecule, how does the IC50 read?
**A.** 0.0191 µM

**Q.** How did the IC50 turn out when `O=C(NO)c1cnc(N2CCN(S(=O)(=O)c3ccc4ccccc4c3)CC2)nc1` + CN(C)c1ccc(Nc2c3ccc(NC(=O)CCN4CCCC4)cc3nc3cc(NC(=O)CCN4CCCC4)ccc23)cc1 was run?
**A.** 0.0828 µM

**Q.** Which IC50 does the source give for `CC1COCCN1c1cc(C2(O)CC3CCC(C2)O3)c2cnn(-c3ccn[nH]3)c2n1` (configuration not stated) + Cc1[nH]c2ccc(F)cc2c1-c1nc2c3cccnc3c3ncccc3c2[nH]1 here?
**A.** < 0.0316 µM

same assay, conditions: second compound 0.0316 µM; first compound 0.000999 µM; stronger effect = lower value

**Q.** Which viability, T/C does the source give for `Cc1[nH]c2ccccc2c1CCNCc1ccc(/C=C/C(=O)NO)cc1` + CN(C)c1ccc(Nc2c3ccc(NC(=O)CCN4CCCC4)cc3nc3cc(NC(=O)CCN4CCCC4)ccc23)cc1 here?
**A.** 108%

same assay, conditions: second compound 0.0316 µM; first compound 0.00316 µM; stronger effect = lower value

**Q.** Which viability, T/C does the source give for `Cc1[nH]c2ccccc2c1CCNCc1ccc(/C=C/C(=O)NO)cc1` + CN(C)c1ccc(Nc2c3ccc(NC(=O)CCN4CCCC4)cc3nc3cc(NC(=O)CCN4CCCC4)ccc23)cc1 here?
**A.** 99.3%

same assay, conditions: second compound 0.0316 µM; first compound 0.00999 µM; stronger effect = lower value

**Q.** Which viability, T/C does the source give for `Cc1[nH]c2ccccc2c1CCNCc1ccc(/C=C/C(=O)NO)cc1` + CN(C)c1ccc(Nc2c3ccc(NC(=O)CCN4CCCC4)cc3nc3cc(NC(=O)CCN4CCCC4)ccc23)cc1 here?
**A.** 126%

same assay, conditions: second compound 0.0316 µM; first compound 0.0316 µM; stronger effect = lower value

**Q.** For `C=CCn1c(=O)c2cnc(Nc3ccc(N4CCN(C)CC4)cc3)nc2n1-c1cccc(C(C)(C)O)n1` + CN(C)c1ccc(Nc2c3ccc(NC(=O)CCN4CCCC4)cc3nc3cc(NC(=O)CCN4CCCC4)ccc23)cc1, which viability, T/C is on record?
**A.** 99.2%

**Q.** For `CCCS(=O)(=O)Nc1ccc(F)c(C(=O)c2c[nH]c3ncc(-c4ccc(Cl)cc4)cc23)c1F` + CN(C)c1ccc(Nc2c3ccc(NC(=O)CCN4CCCC4)cc3nc3cc(NC(=O)CCN4CCCC4)ccc23)cc1, which viability, T/C is on record?
**A.** 113%

**Q.** Which viability, T/C does the source give for `COc1ncnc(C2CC2)c1-c1ncc2cnn(Cc3ccc(-c4nc(C(F)(F)F)cn4C(C)C)cc3)c2n1` + CN(C)c1ccc(Nc2c3ccc(NC(=O)CCN4CCCC4)cc3nc3cc(NC(=O)CCN4CCCC4)ccc23)cc1 here?
**A.** 102%

**Q.** With `Cc1[nH]c2ccccc2c1CCNCc1ccc(/C=C/C(=O)NO)cc1` + CN(C)c1ccc(Nc2c3ccc(NC(=O)CCN4CCCC4)cc3nc3cc(NC(=O)CCN4CCCC4)ccc23)cc1 as the molecule, how does the viability, T/C read?
**A.** 86.1%

**Q.** For `O=C(NO)c1cnc(N2CCN(S(=O)(=O)c3ccc4ccccc4c3)CC2)nc1` + CN(C)c1ccc(Nc2c3ccc(NC(=O)CCN4CCCC4)cc3nc3cc(NC(=O)CCN4CCCC4)ccc23)cc1, which viability, T/C is on record?
**A.** 107%

**Q.** How did the viability, T/C turn out when `CC1COCCN1c1cc(C2(O)CC3CCC(C2)O3)c2cnn(-c3ccn[nH]3)c2n1` (configuration not stated) + Cc1[nH]c2ccc(F)cc2c1-c1nc2c3cccnc3c3ncccc3c2[nH]1 was run?
**A.** 40.4%

same assay, conditions: second compound 0.0316 µM; first compound 0.0999 µM; stronger effect = lower value

**Q.** How did the viability, T/C turn out when `Cc1[nH]c2ccccc2c1CCNCc1ccc(/C=C/C(=O)NO)cc1` + CN(C)c1ccc(Nc2c3ccc(NC(=O)CCN4CCCC4)cc3nc3cc(NC(=O)CCN4CCCC4)ccc23)cc1 was run?
**A.** 3.89%

same assay, conditions: second compound 0.0316 µM; first compound 0.1 µM; stronger effect = lower value

**Q.** `C=CCn1c(=O)c2cnc(Nc3ccc(N4CCN(C)CC4)cc3)nc2n1-c1cccc(C(C)(C)O)n1` + CN(C)c1ccc(Nc2c3ccc(NC(=O)CCN4CCCC4)cc3nc3cc(NC(=O)CCN4CCCC4)ccc23)cc1 was tested. Which viability, T/C did it give?
**A.** 106%

**Q.** Which viability, T/C does the source give for `CCCS(=O)(=O)Nc1ccc(F)c(C(=O)c2c[nH]c3ncc(-c4ccc(Cl)cc4)cc23)c1F` + CN(C)c1ccc(Nc2c3ccc(NC(=O)CCN4CCCC4)cc3nc3cc(NC(=O)CCN4CCCC4)ccc23)cc1 here?
**A.** 112%

**Q.** With `COc1ncnc(C2CC2)c1-c1ncc2cnn(Cc3ccc(-c4nc(C(F)(F)F)cn4C(C)C)cc3)c2n1` + CN(C)c1ccc(Nc2c3ccc(NC(=O)CCN4CCCC4)cc3nc3cc(NC(=O)CCN4CCCC4)ccc23)cc1 as the molecule, how does the viability, T/C read?
**A.** 119%

**Q.** With `O=C(NO)c1cnc(N2CCN(S(=O)(=O)c3ccc4ccccc4c3)CC2)nc1` + CN(C)c1ccc(Nc2c3ccc(NC(=O)CCN4CCCC4)cc3nc3cc(NC(=O)CCN4CCCC4)ccc23)cc1 as the molecule, how does the viability, T/C read?
**A.** 91.7%

**Q.** Which viability, T/C does the source give for `CC1COCCN1c1cc(C2(O)CC3CCC(C2)O3)c2cnn(-c3ccn[nH]3)c2n1` (configuration not stated) + Cc1[nH]c2ccc(F)cc2c1-c1nc2c3cccnc3c3ncccc3c2[nH]1 here?
**A.** 9.87%

same assay, conditions: second compound 0.0316 µM; first compound 0.316 µM; stronger effect = lower value

**Q.** For `C=CCn1c(=O)c2cnc(Nc3ccc(N4CCN(C)CC4)cc3)nc2n1-c1cccc(C(C)(C)O)n1` + CN(C)c1ccc(Nc2c3ccc(NC(=O)CCN4CCCC4)cc3nc3cc(NC(=O)CCN4CCCC4)ccc23)cc1, which viability, T/C is on record?
**A.** 33.4%

**Q.** For `CCCS(=O)(=O)Nc1ccc(F)c(C(=O)c2c[nH]c3ncc(-c4ccc(Cl)cc4)cc23)c1F` + CN(C)c1ccc(Nc2c3ccc(NC(=O)CCN4CCCC4)cc3nc3cc(NC(=O)CCN4CCCC4)ccc23)cc1, which viability, T/C is on record?
**A.** 107%

**Q.** For `COc1ncnc(C2CC2)c1-c1ncc2cnn(Cc3ccc(-c4nc(C(F)(F)F)cn4C(C)C)cc3)c2n1` + CN(C)c1ccc(Nc2c3ccc(NC(=O)CCN4CCCC4)cc3nc3cc(NC(=O)CCN4CCCC4)ccc23)cc1, which viability, T/C is on record?
**A.** 106%

**Q.** With `Cc1[nH]c2ccccc2c1CCNCc1ccc(/C=C/C(=O)NO)cc1` + CN(C)c1ccc(Nc2c3ccc(NC(=O)CCN4CCCC4)cc3nc3cc(NC(=O)CCN4CCCC4)ccc23)cc1 as the molecule, how does the viability, T/C read?
**A.** 0.19%

**Q.** How did the viability, T/C turn out when `O=C(NO)c1cnc(N2CCN(S(=O)(=O)c3ccc4ccccc4c3)CC2)nc1` + CN(C)c1ccc(Nc2c3ccc(NC(=O)CCN4CCCC4)cc3nc3cc(NC(=O)CCN4CCCC4)ccc23)cc1 was run?
**A.** 5.47%

**Q.** How did the viability, T/C turn out when `CC1COCCN1c1cc(C2(O)CC3CCC(C2)O3)c2cnn(-c3ccn[nH]3)c2n1` (configuration not stated) + Cc1[nH]c2ccc(F)cc2c1-c1nc2c3cccnc3c3ncccc3c2[nH]1 was run?
**A.** 7.43%

same assay, conditions: second compound 0.0316 µM; first compound 1 µM; stronger effect = lower value

**Q.** How did the viability, T/C turn out when `C=CCn1c(=O)c2cnc(Nc3ccc(N4CCN(C)CC4)cc3)nc2n1-c1cccc(C(C)(C)O)n1` + CN(C)c1ccc(Nc2c3ccc(NC(=O)CCN4CCCC4)cc3nc3cc(NC(=O)CCN4CCCC4)ccc23)cc1 was run?
**A.** 9.73%

**Q.** How did the viability, T/C turn out when `CCCS(=O)(=O)Nc1ccc(F)c(C(=O)c2c[nH]c3ncc(-c4ccc(Cl)cc4)cc23)c1F` + CN(C)c1ccc(Nc2c3ccc(NC(=O)CCN4CCCC4)cc3nc3cc(NC(=O)CCN4CCCC4)ccc23)cc1 was run?
**A.** 98.5%

**Q.** With `COc1ncnc(C2CC2)c1-c1ncc2cnn(Cc3ccc(-c4nc(C(F)(F)F)cn4C(C)C)cc3)c2n1` + CN(C)c1ccc(Nc2c3ccc(NC(=O)CCN4CCCC4)cc3nc3cc(NC(=O)CCN4CCCC4)ccc23)cc1 as the molecule, how does the viability, T/C read?
**A.** 107%

**Q.** For `O=C(NO)c1cnc(N2CCN(S(=O)(=O)c3ccc4ccccc4c3)CC2)nc1` + CN(C)c1ccc(Nc2c3ccc(NC(=O)CCN4CCCC4)cc3nc3cc(NC(=O)CCN4CCCC4)ccc23)cc1, which viability, T/C is on record?
**A.** 0.25%

**Q.** How did the viability, T/C turn out when `CC1COCCN1c1cc(C2(O)CC3CCC(C2)O3)c2cnn(-c3ccn[nH]3)c2n1` (configuration not stated) + Cc1[nH]c2ccc(F)cc2c1-c1nc2c3cccnc3c3ncccc3c2[nH]1 was run?
**A.** 5.2%

same assay, conditions: second compound 0.0316 µM; first compound 3.16 µM; stronger effect = lower value

**Q.** How did the viability, T/C turn out when `C=CCn1c(=O)c2cnc(Nc3ccc(N4CCN(C)CC4)cc3)nc2n1-c1cccc(C(C)(C)O)n1` + CN(C)c1ccc(Nc2c3ccc(NC(=O)CCN4CCCC4)cc3nc3cc(NC(=O)CCN4CCCC4)ccc23)cc1 was run?
**A.** 6.22%
